Measured values taken from patent US12678423B2, “Therapeutic agent for amyotrophic lateral sclerosis and composition for treatment” (KEIO UNIVERSITY, priority 2016, dated 2026).

Assays:
Type in all cases: cell-based, human
[1] = system: motor neurons induced to differentiate from iPS cells derived from ALS patients (TDP-43-ALS) having a mutation in TDP-43; assay: Neurite length, TDP-43-ALS motor neurons (screening, Example I-8)
Method: For each differentiation-induced motor neuron in Example I-1, the changes over time in the neurite length were measured. A Bio station CT (Nikon Corp.) was used to measure the neurite length over time. FIG. 1 is a graph showing measurement results of changes over time in the neurite length. The vertical axis represents neurite length (relative value), and the horizontal axis represents the number of days of culturing from the start of differentiation induction.
(§1) Using the differentiation-induced motor neurons in Example I-1, drugs which cause the ALS phenotype to be restored were screened from existing drug libraries with the neurite length, ectopic localization of FUS protein, stress granule formation, LDH leakage ratio, CV-caspase 3-positive ratio, phosphorylated TDP-43 protein inclusion formation, and the like as indices.
(§2) As a result of the screening, ropinirole was found as a promising therapeutic agent for ALS. Tables 5 and 6 show the improvement ratio (%) in the ALS phenotype due to adding ropinirole to the medium. Here, ropinirole was added to the medium on days 35 to 40 from the start of the differentiation induction of each iPS cell. Here, it is assumed that days 35 to 40 from the start of differentiation induction correspond to the early stage of the ALS disease.
(§3) The improvement ratio (%) of the ALS phenotype was calculated by Equation (1).
(§4) [formula] [In Equation (1), A represents a measurement value of motor neurons induced to differentiate from iPS cells derived from ALS patients in the absence of ropinirole, and B represents a measurement value of motor neurons induced to differentiate from iPS cells derived from ALS patients in the presence of ropinirole, and C represents a measurement value of motor neurons induced to differentiate from iPS cells derived from healthy subjects in the absence of ropinirole.]
(§5) Subsequently, in the same manner as above, the efficacy in cases of administering lower concentrations of ropinirole was evaluated.
(§6) Each drug was added to the medium at a final concentration of 10 μM.

[2] = system: motor neurons induced to differentiate from iPS cells derived from ALS patients (FUS-ALS) having a mutation in FUS; assay: Neurite length in late stage ALS disease, FUS-ALS (Example I-9); details: final concentration 1 μM, added days 50 to 62 from start of differentiation induction, FIG. 14
Method: The efficacy of ropinirole was evaluated in the same manner as in Example I-8, except that the timing of adding ropinirole was changed to days 50 to 62 from the start of the differentiation induction of each iPS cell. It is assumed that days 50 to 62 after the start of induction of differentiation correspond to the late stage of the ALS disease.
Specifically, ropinirole was added to a medium of motor neurons induced to differentiate from iPS cells derived from ALS patients (FUS-ALS) having a mutation in FUS and motor neurons induced to differentiate from iPS cells derived from ALS patients (TDP-43-ALS) having a mutation in TDP-43 and the changes over time in the neurite length were measured. The measurement of neurite length was carried out in the same manner as in Example I-2. Ropinirole was added to the medium at a final concentration of 1 μM.
FIG. 14(a) is a graph showing the results of measurement of the changes over time in the neurite length of each motor neuron. In FIG. 14(a), the vertical axis represents the neurite length (relative value), the horizontal axis represents the number of days of culturing from the start of differentiation induction, and “+ROPI” represents the result of adding ropinirole to the medium. In addition, FIG. 14(b) is a graph enlarging the boxed portion of the graph of FIG. 14(a). […]

[3] = system: motor neurons induced to differentiate from iPS cells derived from ALS patients (TDP-43-ALS) having a mutation in TDP-43; assay: Phosphorylated TDP-43 protein inclusion formation, TDP-43-ALS motor neurons
Description: Therefore, on day 40 from the start of differentiation induction, each differentiation-induced motor neuron in Example I-1 was immunostained and the formation of phosphorylated TDP-43 protein inclusions was examined.
as §1, §2, §3, §4, §5, §6

[4] = system: motor neurons induced to differentiate from iPS cells derived from SALS patients; assay: CV caspase 3-positive ratio, sporadic ALS model (Example III-2); details: final concentration 1 μM, days 35 to 40, measured on day 40, FIG. 11
Description: In the same manner as in Example I-1, iPS cells derived from sporadic ALS (may be referred to below as “SALS”) patients were differentiated into motor neurons. All the iPS cells used were derived from dermal fibroblasts. Below, each differentiated motor neuron is identified by the patient number from whom the neuron was derived.
In the same manner as in Example II-1, iPS cells derived from sporadic ALS (SALS) patients were induced to differentiate into motor neurons, and then ropinirole with a final concentration of 1 μM was added to the medium. More specifically, for the period of days 35 to 40 from the start of differentiation induction, ropinirole having a final concentration of 1 μM was added to the medium. In addition, a group for which ropinirole was not added to the medium was prepared as a control. In addition, for comparison, iPS cells derived from healthy subjects were differentiated into motor neurons in the same manner as in Example I-1. No ropinirole was added to the medium of these motor neurons. As the iPS cells derived from a healthy subject, the same cells as used in Example I-1 were used.
Subsequently, on day 40 from the start of differentiation induction, the ratio of CV caspase 3-positive neurons was measured for each motor neuron in the same manner as in Example I-3.
FIG. 11 is a graph showing the measurement results of the ratio of CV caspase 3-positive neurons. […]

[5] = final concentration 0.1 μM, added days 35 to 40
[6] = final concentration 1 μM, added days 35 to 40
[7] = final concentration 10 μM, added days 35 to 40

## CCCN(CCC)CCc1cccc2c1CC(=O)N2 [Ropinirole, 4-(2-di-n-propylaminoethyl)-2(3H)-indole]
[1]; final concentration 0.1 nM
  Neurite length improvement ratio: 12.1%
[1]; final concentration 1 nM
  Neurite length improvement ratio: 49.4%
[1]; final concentration 10 nM
  Neurite length improvement ratio: 52.3%
[1]; [5]
  Neurite length improvement ratio: 50.4%
[1]; [6]
  Neurite length improvement ratio: 75.3%
[1]; [7]
  Neurite length improvement ratio: 77.2%
[2]
  Neurite length (changes over time), late stage: neuroprotective action (maintenance of neurite length)
[3]; final concentration 0.1 nM
  TDP-43 inclusion formation improvement ratio: 15.3%
[3]; final concentration 1 nM
  TDP-43 inclusion formation improvement ratio: 55.3%
[3]; final concentration 10 nM
  TDP-43 inclusion formation improvement ratio: 60.3%
[3]; [5]
  TDP-43 inclusion formation improvement ratio: 56.2%
[3]; [6]
  TDP-43 inclusion formation improvement ratio: 69.2%
[3]; [7]
  TDP-43 inclusion formation improvement ratio: 74.2%
[4]
  Ratio of CV caspase 3-positive neurons: significantly reduced
